Among the test systems are Malme-3M; OVCAR-8; KM12; COLO 205; OVCAR-3; SW-620; UACC-257; TK-10; SK-MEL-2; OVCAR-4; SN12C; EKVX; SK-OV-3; HL-60; UO-31; NCI-H23; 786-0; SF-295; HOP-92.
What all share (test): NCI-60 cell line screen, 48 h

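Compound exposure: 48 hours, 5 concentrations, 96-well plates. GI50 is the concentration that inhibits growth by half.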 Calls of active or inactive are those of the source. Rule as the data show it: active = GI50 up to about 1.1 µM and inactive = higher.

As for `Cc1ccc(O)c(-c2cc(-c3cccc(Br)c3)c(C#N)c(N)n2)c1`, the GI50 was 23.5 µM (inactive) in the assay on Malme-3M; 32.3 µM (inactive) with OVCAR-8; 19.2 µM (inactive) in the assay with KM12; 18.5 µM (inactive) with COLO 205; 27.6 µM (inactive) in the assay on OVCAR-3; 23.8 µM (inactive) with SW-620. In addition, the GI50 in the assay on UACC-257 was 20.8 µM (inactive); in the assay with TK-10, 18.2 µM (inactive); in the assay with SK-MEL-2, 20.7 µM (inactive); in the assay with OVCAR-4 it was < 0.01 µM (active); in the assay with SN12C it was 21.5 µM (inactive); with EKVX, 14.8 µM (inactive). Moreover, the GI50 was 31.9 µM (inactive) in the assay on SK-OV-3; 30 µM (inactive) in the assay with HL-60; 20.4 µM (inactive) in the assay with UO-31; 33.7 µM (inactive) in the assay with NCI-H23; 34.4 µM (inactive) in the assay with 786-0; 22.9 µM (inactive) with SF-295.

As to `Cc1ccc(OCC2OC(n3cnc4nc(Nc5ccc(Cl)c(Cl)c5)nc(Cl)c43)CC2Oc2ccc(C)cc2)cc1` (stereo not given), the GI50 in the assay with Malme-3M, with OVCAR-8, in the assay on KM12, in the assay on COLO 205, in the assay with OVCAR-3 and with SW-620 was > 100 µM (inactive) each time. For the same molecule, the GI50 is > 100 µM (inactive) in the assay with UACC-257; > 100 µM (inactive) with TK-10; > 100 µM (inactive) in the assay on SK-MEL-2; > 100 µM (inactive) with OVCAR-4; > 100 µM (inactive) in the assay with SN12C; 53.7 µM (inactive) with EKVX. The GI50 in the assay on SK-OV-3, in the assay on UO-31, in the assay on NCI-H23, in the assay with 786-0 and in the assay with SF-295 was > 100 µM (inactive) in each case.

As to `COC1C(O)CC(OC2CC(OC3CC(O[C@@H]4C(=O)c5c(cc6cc(OC7CC(OC8CC(O)C(O)C(C)O8)C(O)C(C)O7)c(C)c(O)c6c5O)C[C@H]4[C@H](OC)C(=O)[C@@H](O)[C@@H](C)O)OC(C)C3O)OC(C)C2O)OC1C` (stereo not given in full), the GI50 in the assay with Malme-3M is < 0.0126 µM (active); in the assay on OVCAR-8, < 0.0193 µM (active); in the assay with KM12, 0.0168 µM (active); with HOP-92, < 0.014 µM (active); in the assay on COLO 205, 0.0189 µM (active); in the assay on OVCAR-3, < 0.0271 µM (active). The GI50 is < 0.0228 µM (active) in the assay on SW-620; < 0.0166 µM (active) in the assay with UACC-257; 0.0431 µM (active) in the assay with TK-10; < 0.0129 µM (active) with SK-MEL-2; 0.0671 µM (active) in the assay on OVCAR-4; < 0.0197 µM (active) in the assay with SN12C. The GI50 in the assay on EKVX was 0.034 µM (active); with SK-OV-3 it was < 0.0236 µM (active); with UO-31 it was 0.0318 µM (active); in the assay on 786-0, < 0.0194 µM (active); in the assay with SF-295, < 0.0173 µM (active).

As for `COC(=O)/C=C/COCC1C2CCC(=O)C21` (stereo not given), the GI50 with Malme-3M, in the assay with OVCAR-8, with KM12, with HOP-92, with COLO 205 and in the assay with OVCAR-3 was > 100 µM (inactive) in each case. For the same molecule, the GI50 in the assay on SW-620, with UACC-257, in the assay with TK-10, in the assay with SK-MEL-2, with OVCAR-4 and with SN12C was > 100 µM (inactive) in each case. In addition, the GI50 in the assay with EKVX, in the assay on SK-OV-3, in the assay with UO-31, in the assay with NCI-H23, in the assay on 786-0 and with SF-295 was > 100 µM (inactive) in each case.
